Assay: refractive index (Na D-line) (dimensionless); xn = mol fraction of the nth substance listed
Settings: 101 kPa, Liquid, Dipping refractometry (monochromatic)

C1CCOC1 [tetrahydrofuran] + CCCCO
refractive index
Settings | x1 = 0.1001 | x1 = 0.2003 | x1 = 0.3 | x1 = 0.4003 | x1 = 0.5 | x1 = 0.6001 | x1 = 0.7003 | x1 = 0.8006 | x1 = 0.9002 | x1 = 1
288.15 K | 1.402 | 1.4028 | 1.4036 | 1.4043 | 1.4051 | 1.4059 | 1.4068 | 1.4077 | 1.4087 | 1.4096
293.15 K | 1.3999 | 1.4006 | 1.4013 | 1.4021 | 1.4028 | 1.4035 | 1.4044 | 1.4052 | 1.4061 | 1.407
298.15 K | 1.3978 | 1.3985 | 1.3991 | 1.3998 | 1.4004 | 1.4011 | 1.4019 | 1.4027 | 1.4035 | 1.4043
303.15 K | 1.3957 | 1.3963 | 1.3969 | 1.3974 | 1.398 | 1.3987 | 1.3994 | 1.4001 | 1.4009 | 1.4016
308.15 K | 1.3936 | 1.3941 | 1.3946 | 1.3951 | 1.3957 | 1.3962 | 1.3969 | 1.3975 | 1.3983 | 1.399
313.15 K | 1.3914 | 1.3919 | 1.3923 | 1.3928 | 1.3933 | 1.3938 | 1.3943 | 1.3949 | 1.3956 | 1.3963
318.15 K | 1.3893 | 1.3897 | 1.3901 | 1.3905 | 1.3909 | 1.3913 | 1.3918 | 1.3923 | 1.3929 | 1.3936
323.15 K | 1.3871 | 1.3874 | 1.3878 | 1.3881 | 1.3885 | 1.3888 | 1.3893 | 1.3897 | 1.3903 | 1.3909

From the NIST ThermoML archive (doi:10.1021/je4003916)
